# Earlier results in patent US9662356B1, “Propolis-metal nanoparticle composition and methods of use” (Vets Plus, Inc., priority 2015, dated 2017).
# Test system: otitis externa
# Details: case history: treated previously over the course of the year
row,Molecule,outcome of previous antibiotic treatment of otitis externa
1,C[C@@H]1[C@H](O)[C@@H](C)/C=C/C=C/CC/C=C/C=C/C=C/C=C/C(O[C@H]2O[C@H](C)[C@@H](O)[C@H](N)[C@@H]2O)CC2O[C@](O)(CC(O)C(O)CCC(O)CC(O)CC(O)CC(=O)O[C@H]1C)CC(O)C2C(=O)O (stereo partly drawn) [nystatin],to no avail
2,neomycin,to no avail
3,polymyxin B,to no avail
